PMC9250534, “Synthesis and direct assay of large macrocycle diversities by combinatorial late-stage modification at picomole scale” (Nature Communications, 2022)
Numbered stars: 1 amine (or outer) side, 2 acyl side, 3 side chain; on linkers, the order of the positions; unused ones are H or OH. Bridge positions count the residues as written; N and C are the ends. Square brackets hold non-standard residues; d marks the D form. Peptide text beside a SMILES is read from it. * marks the point of attachment. ξ: configuration not given here. Pro(cis-4-NH-(E)-Cinnamoyl) = O=C(/C=C/c1ccccc1)N[C@@H]1CN[C@H](C(=O)O)C1; Pro(4S-NHCO(5-Cl-2-thienyl)) = O=C(N[C@@H]1CN[C@H](C(=O)O)C1)c1ccc(Cl)s1; ξPro(4-NHCO(5-Cl-2-thienyl)) = O=C(NC1CNC(C(=O)O)C1)c1ccc(Cl)s1; ξPro(4ξ-NHCOC6H4-4-Cl) = O=C(NC1CNC(C(=O)O)C1)c1ccc(Cl)cc1; 2Thenoyl(5-Cl) = O=C(c1ccc(Cl)s1)*; Cysteamide = C(CS[*:3])N[*:1]; Api = NC1(C(=O)O)CCNCC1; Mpa = O=C(O)CCS

Target: MDM2 (Homo sapiens, UniProt Q00987)
Assay: MDM2 binding screen: displacement of fluorescent p53 peptide probe FP53 (fluorescence polarization)
Settings: crude macrocycle reactions; for fraction fluorescent probe displaced, Screen: initial screen
How it was run: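 Macrocycle reaction products at a final 10 µM were tested for displacement of a p53-based fluorescent peptide from human MDM2. Fluorescence anisotropy (ex 485/em 535 nm) was read once per macrocycle at 25 °C.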

Sequence of MDM2 (Q00987 whole entry): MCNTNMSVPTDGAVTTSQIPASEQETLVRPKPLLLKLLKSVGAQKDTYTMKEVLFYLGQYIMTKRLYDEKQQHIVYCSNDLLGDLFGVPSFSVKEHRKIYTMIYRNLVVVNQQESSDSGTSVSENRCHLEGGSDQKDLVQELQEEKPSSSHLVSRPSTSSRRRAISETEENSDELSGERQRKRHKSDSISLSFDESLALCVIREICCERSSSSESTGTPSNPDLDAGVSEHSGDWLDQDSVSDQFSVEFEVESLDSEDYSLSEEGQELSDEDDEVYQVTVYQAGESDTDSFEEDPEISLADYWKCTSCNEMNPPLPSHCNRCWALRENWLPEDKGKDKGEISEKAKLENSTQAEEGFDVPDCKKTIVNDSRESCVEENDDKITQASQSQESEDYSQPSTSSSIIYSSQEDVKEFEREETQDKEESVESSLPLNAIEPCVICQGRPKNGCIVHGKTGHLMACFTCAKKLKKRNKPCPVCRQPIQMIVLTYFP

| SMILES | fraction fluorescent probe displaced, Screen (Acid 25) | fraction fluorescent probe displaced, Replicate (Acid 25) | fraction fluorescent probe displaced, Screen (Acid 14) | fraction fluorescent probe displaced, Replicate (Acid 14) | further results |
| --- | --- | --- | --- | --- | --- |
| O=C1CCSSCCNC(=O)c2cccc(c2)CNC(=O)[C@H](Cc2c[nH]c3ccccc23)NC(=O)[C@H](CNC(=O)c2ccc(Cl)cc2)N1 [X D3 W B5 Acid 25] | 0.35 | 0.28 | – | – | – |
| O=C(/C=C/c1ccccc1)NC[C@@H]1NC(=O)CCSSCCNC(=O)c2cccc(c2)CNC(=O)[C@H](Cc2c[nH]c3ccccc23)NC1=O [X D3 W B5 Acid 91] | – | – | – | – | fraction fluorescent probe displaced, Screen (Acid 91): 0.24; fraction fluorescent probe displaced, Replicate (Acid 91): 0.32 |
| O=C(NC1CC2C(=O)N3CCCC3C(=O)NC(Cc3ccccc3)C(=O)NCCSSCCC(=O)N2C1)c1ccc(Cl)cc1 (stereo not shown) [X D5 B1 F Acid 25] ([Mpa][ξPro(4ξ-NHCOC6H4-4-Cl)]PF-Cysteamide; disulfide 1-C; configuration not given here) | -0.07 | 0.12 | – | – | – |
| O=C(NC1CC2C(=O)N3CCCC3C(=O)NC(Cc3c[nH]c4ccccc34)C(=O)NCCSSCCC(=O)N2C1)c1ccc(Cl)s1 (stereo not shown) [X D5 B1 W Acid 14] ([Mpa][ξPro(4-NHCO(5-Cl-2-thienyl))]PW-Cysteamide; disulfide 1-C; configuration not given here) | – | – | 0.17 | 0.0465 | – |
| O=C(NC1CC2C(=O)N3CCCC3C(=O)NC(Cc3c[nH]c4ccccc34)C(=O)NCCSSCCC(=O)N2C1)c1ccc(Cl)cc1 (stereo not shown) [X D5 B1 W Acid 25] ([Mpa][ξPro(4ξ-NHCOC6H4-4-Cl)]PW-Cysteamide; disulfide 1-C; configuration not given here) | 0.25 | 0.15 | – | – | – |
| O=C(/C=C/c1ccccc1)N[C@H]1C[C@H]2C(=O)N3CCC[C@H]3C(=O)N[C@@H](Cc3c[nH]c4ccccc34)C(=O)NCCSSCCC(=O)N2C1 [X D5 B1 W Acid 91] ([Mpa][Pro(cis-4-NH-(E)-Cinnamoyl)]PW-Cysteamide; disulfide 1-C) | – | – | – | – | fraction fluorescent probe displaced, Screen (Acid 91): 0.03; fraction fluorescent probe displaced, Replicate (Acid 91): 0.07 |
| O=C1CCNC(=O)C2CC(NC(=O)c3ccc(Cl)s3)CN2C(=O)CCSSCCNC(=O)C(Cc2ccccc2)N1 (stereo not shown) [X D5 B2 F Acid 14] | – | – | -0.0337 | 0.07 | – |
| O=C1CCNC(=O)C2CC(NC(=O)c3ccc(Cl)cc3)CN2C(=O)CCSSCCNC(=O)C(Cc2c[nH]c3ccccc23)N1 (stereo not shown) [X D5 B2 W Acid 25] | 0.15 | 0.07 | – | – | – |
| O=C(NC1CC2C(=O)N3CCCC(C3)C(=O)NC(Cc3ccccc3)C(=O)NCCSSCCC(=O)N2C1)c1ccc(Cl)s1 (stereo not shown) [X D5 B4 F Acid 14] | – | – | -0.06 | 0.0211 | – |
| O=C(NC1CC2C(=O)N3CCCC(C3)C(=O)NC(Cc3c[nH]c4ccccc34)C(=O)NCCSSCCC(=O)N2C1)c1ccc(Cl)s1 (stereo not shown) [X D5 B4 W Acid 14] | – | – | 0.11 | 0.12 | – |
| O=C1NC(Cc2ccccc2)C(=O)NCCSSCCC(=O)N2CC(NC(=O)c3ccc(Cl)s3)CC2C(=O)NCc2cccc1c2 (stereo not shown) [X D5 B5 F Acid 14] | – | – | -0.0337 | 0.0465 | – |
| O=C(N[C@H]1C[C@H]2C(=O)NCc3cccc(c3)C(=O)N[C@@H](Cc3ccccc3)C(=O)NCCSSCCC(=O)N2C1)c1ccc(Cl)cc1 [X D5 B5 F Acid 25] | -0.00813 | 0.15 | – | – | – |
| O=C(C=Cc1ccccc1)NC1CC2C(=O)NCc3cccc(c3)C(=O)NC(Cc3ccccc3)C(=O)NCCSSCCC(=O)N2C1 (stereo not shown) [X D5 B5 F Acid 91] | – | – | – | – | fraction fluorescent probe displaced, Screen (Acid 91): -0.05; fraction fluorescent probe displaced, Replicate (Acid 91): 0.07 |
| O=C(/C=C/c1ccccc1)N[C@H]1C[C@H]2C(=O)NCc3cccc(c3)C(=O)N[C@@H](Cc3c[nH]c4ccccc34)C(=O)NCCSSCCC(=O)N2C1 [X D5 B5 W Acid 91] | – | – | – | – | fraction fluorescent probe displaced, Screen (Acid 91): 0.00268; fraction fluorescent probe displaced, Replicate (Acid 91): 0.09 |
| O=C(NC1CC2C(=O)NC(Cc3ccccc3)C(=O)N3CCCC3C(=O)NCCSSCCC(=O)N2C1)c1ccc(Cl)s1 (stereo not shown) [X D5 F B1 Acid 14] ([Mpa][ξPro(4-NHCO(5-Cl-2-thienyl))]FP-Cysteamide; disulfide 1-C; configuration not given here) | – | – | 0.28 | 0.0465 | – |
| O=C1CCNC(=O)C(Cc2ccccc2)NC(=O)C2CC(NC(=O)c3ccc(Cl)s3)CN2C(=O)CCSSCCN1 (stereo not shown) [X D5 F B2 Acid 14] | – | – | 0.08 | 0.0465 | – |

| SMILES | fraction fluorescent probe displaced, Screen (Acid 25) | fraction fluorescent probe displaced, Replicate (Acid 25) | fraction fluorescent probe displaced, Screen (Acid 14) | fraction fluorescent probe displaced, Replicate (Acid 14) | further results |
| --- | --- | --- | --- | --- | --- |
| O=C(C=Cc1ccccc1)NC1CC2C(=O)NC(Cc3ccccc3)C(=O)NCCC(=O)NCCSSCCC(=O)N2C1 (stereo not shown) [X D5 F B2 Acid 91] | – | – | – | – | fraction fluorescent probe displaced, Screen (Acid 91): 0.0563; fraction fluorescent probe displaced, Replicate (Acid 91): -0.0333 |
| O=C(NC1CC2C(=O)NC(Cc3ccccc3)C(=O)N3CCCC(C3)C(=O)NCCSSCCC(=O)N2C1)c1ccc(Cl)s1 (stereo not shown) [X D5 F B4 Acid 14] | – | – | 0.0241 | 0.10 | – |
| O=C(NC1CC2C(=O)NC(Cc3ccccc3)C(=O)N3CCCC(C3)C(=O)NCCSSCCC(=O)N2C1)c1ccc(Cl)cc1 (stereo not shown) [X D5 F B4 Acid 25] | 0.0244 | 0.0211 | – | – | – |
| O=C1NCCSSCCC(=O)N2CC(NC(=O)c3ccc(Cl)s3)CC2C(=O)NC(Cc2ccccc2)C(=O)NCc2cccc1c2 (stereo not shown) [X D5 F B5 Acid 14] | – | – | 0.11 | -0.03 | – |
| O=C1NCCSSCCC(=O)N2C[C@@H](NC(=O)c3ccc(Cl)cc3)C[C@H]2C(=O)N[C@@H](Cc2ccccc2)C(=O)NCc2cccc1c2 [X D5 F B5 Acid 25] | 0.0569 | 0.0465 | – | – | – |
| O=C(/C=C/c1ccccc1)N[C@H]1C[C@H]2C(=O)N[C@@H](Cc3ccccc3)C(=O)NCc3cccc(c3)C(=O)NCCSSCCC(=O)N2C1 [X D5 F B5 Acid 91] | – | – | – | – | fraction fluorescent probe displaced, Screen (Acid 91): -0.05; fraction fluorescent probe displaced, Replicate (Acid 91): -0.00827 |
| O=C(N[C@H]1C[C@H]2C(=O)N[C@@H](Cc3c[nH]c4ccccc34)C(=O)N3CCC[C@H]3C(=O)NCCSSCCC(=O)N2C1)c1ccc(Cl)s1 [X D5 W B1 Acid 14] ([Mpa][Pro(4S-NHCO(5-Cl-2-thienyl))]WP-Cysteamide; disulfide 1-C) | – | – | 0.23 | 0.10 | – |
| O=C(NC1CC2C(=O)NC(Cc3c[nH]c4ccccc34)C(=O)N3CCCC3C(=O)NCCSSCCC(=O)N2C1)c1ccc(Cl)cc1 (stereo not shown) [X D5 W B1 Acid 25] ([Mpa][ξPro(4ξ-NHCOC6H4-4-Cl)]WP-Cysteamide; disulfide 1-C; configuration not given here) | 0.22 | 0.10 | – | – | – |
| O=C1CCNC(=O)C(Cc2c[nH]c3ccccc23)NC(=O)C2CC(NC(=O)c3ccc(Cl)s3)CN2C(=O)CCSSCCN1 (stereo not shown) [X D5 W B2 Acid 14] | – | – | 0.17 | 0.17 | – |
| O=C(/C=C/c1ccccc1)N[C@H]1C[C@H]2C(=O)N[C@@H](Cc3c[nH]c4ccccc34)C(=O)NCCC(=O)NCCSSCCC(=O)N2C1 [X D5 W B2 Acid 91] | – | – | – | – | fraction fluorescent probe displaced, Screen (Acid 91): 0.00268; fraction fluorescent probe displaced, Replicate (Acid 91): -0.0333 |
| O=C(NC1CC2C(=O)NC(Cc3c[nH]c4ccccc34)C(=O)N3CCCC(C3)C(=O)NCCSSCCC(=O)N2C1)c1ccc(Cl)cc1 (stereo not shown) [X D5 W B4 Acid 25] | 0.09 | 0.15 | – | – | – |
| O=C(C=Cc1ccccc1)NC1CC2C(=O)NC(Cc3c[nH]c4ccccc34)C(=O)N3CCCC(C3)C(=O)NCCSSCCC(=O)N2C1 (stereo not shown) [X D5 W B4 Acid 91] | – | – | – | – | fraction fluorescent probe displaced, Screen (Acid 91): 0.0563; fraction fluorescent probe displaced, Replicate (Acid 91): 0.07 |
| O=C1NCCSSCCC(=O)N2CC(NC(=O)c3ccc(Cl)s3)CC2C(=O)NC(Cc2c[nH]c3ccccc23)C(=O)NCc2cccc1c2 (stereo not shown) [X D5 W B5 Acid 14] | – | – | 0.08 | 0.0211 | – |
| O=C1NCCSSCCC(=O)N2C[C@@H](NC(=O)c3ccc(Cl)cc3)C[C@H]2C(=O)N[C@@H](Cc2c[nH]c3ccccc23)C(=O)NCc2cccc1c2 [X D5 W B5 Acid 25] | 0.0569 | 0.0465 | – | – | – |
| O=C(/C=C/c1ccccc1)N[C@H]1C[C@H]2C(=O)N[C@@H](Cc3c[nH]c4ccccc34)C(=O)NCc3cccc(c3)C(=O)NCCSSCCC(=O)N2C1 [X D5 W B5 Acid 91] | – | – | – | – | fraction fluorescent probe displaced, Screen (Acid 91): -0.05; fraction fluorescent probe displaced, Replicate (Acid 91): 0.0168 |
| O=C1CCSSCCNC(=O)C(Cc2ccccc2)NC(=O)C2CCCN2C(=O)C2(CCN(C(=O)c3ccc(Cl)s3)CC2)N1 (stereo not shown) [X D6 B1 F Acid 14] ([Mpa][Api](2Thenoyl(5-Cl))PF-Cysteamide; disulfide 1-C; configuration not given here) | – | – | -0.00483 | 0.0465 | – |
